The inhibition is how much of the control response was suppressed. For orientation: IC50 means the concentration that inhibits the measured activity by half. The low end stands for greater potency in that assay, the high end for weaker potency in that assay.

This is an account of results in ChEMBL document CHEMBL3286192, “Late-Stage C-H Coupling Enables Rapid Identification of HDAC Inhibitors: Synthesis and Evaluation of NCH-31 Analogues” (ACS Med Chem Lett, 2014).

Activity calls are given as the source filed them. The rule behind the calls is not given here.

Assay [1] concerns the target T1, Histone deacetylase 1 (Homo sapiens, UniProt Q13547). Conditions: at 0.1 µM.
For assay [2], the target named is T2, Protein deacetylase HDAC6 (Homo sapiens, UniProt Q9UBN7).
T2 sequence (Q9UBN7 whole entry): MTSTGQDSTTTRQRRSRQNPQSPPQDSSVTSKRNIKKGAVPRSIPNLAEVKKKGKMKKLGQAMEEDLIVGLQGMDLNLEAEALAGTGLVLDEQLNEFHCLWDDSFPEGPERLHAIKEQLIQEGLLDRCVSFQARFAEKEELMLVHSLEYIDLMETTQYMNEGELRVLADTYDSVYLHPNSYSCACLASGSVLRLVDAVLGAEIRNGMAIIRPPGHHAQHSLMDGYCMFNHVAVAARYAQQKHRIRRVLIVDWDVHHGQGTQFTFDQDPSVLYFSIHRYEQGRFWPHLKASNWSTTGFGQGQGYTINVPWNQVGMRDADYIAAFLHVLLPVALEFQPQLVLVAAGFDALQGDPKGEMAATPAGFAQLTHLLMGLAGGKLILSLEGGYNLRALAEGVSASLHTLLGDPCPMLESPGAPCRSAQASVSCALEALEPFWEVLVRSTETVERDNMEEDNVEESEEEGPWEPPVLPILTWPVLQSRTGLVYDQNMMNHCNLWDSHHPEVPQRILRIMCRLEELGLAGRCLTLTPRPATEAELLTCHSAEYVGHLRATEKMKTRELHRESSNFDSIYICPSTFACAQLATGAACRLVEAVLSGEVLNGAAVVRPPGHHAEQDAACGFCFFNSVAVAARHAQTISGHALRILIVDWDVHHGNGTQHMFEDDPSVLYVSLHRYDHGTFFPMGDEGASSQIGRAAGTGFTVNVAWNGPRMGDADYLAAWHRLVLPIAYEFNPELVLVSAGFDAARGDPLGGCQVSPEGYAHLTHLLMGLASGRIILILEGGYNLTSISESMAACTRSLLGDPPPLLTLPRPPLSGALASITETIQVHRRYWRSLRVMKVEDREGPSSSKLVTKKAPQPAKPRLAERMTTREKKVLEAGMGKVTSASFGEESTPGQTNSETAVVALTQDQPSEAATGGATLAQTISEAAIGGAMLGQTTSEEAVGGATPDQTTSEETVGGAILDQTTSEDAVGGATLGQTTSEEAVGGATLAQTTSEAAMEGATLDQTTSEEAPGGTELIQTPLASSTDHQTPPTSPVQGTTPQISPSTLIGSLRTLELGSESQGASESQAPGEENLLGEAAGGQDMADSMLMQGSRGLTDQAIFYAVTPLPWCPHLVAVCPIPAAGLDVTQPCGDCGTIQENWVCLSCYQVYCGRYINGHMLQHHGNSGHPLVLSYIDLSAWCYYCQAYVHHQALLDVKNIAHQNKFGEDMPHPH
Kind of assay: Inhibition of human HDAC6 by HDAC-Glo assay.

Assay [3] deals with T3, Histone deacetylase 9 (Homo sapiens, UniProt Q9UKV0). Kind of assay: Inhibition of human HDAC9 at 0.1 uM by HDAC-Glo assay.
Assay [4] addresses T1, Histone deacetylase 1. Kind of assay: Inhibition of human HDAC1 by HDAC-Glo assay.
Assay [5] deals with T3, Histone deacetylase 9. Kind of assay: Inhibition of human HDAC9 by HDAC-Glo assay.
For assay [6], the target named is T4, Protein deacetylase HDAC6 (Homo sapiens) (UniProt Q9UBN7).
T4 sequence (whole entry): T2 sequence (Q9UBN7 whole entry)
Kind of assay: Inhibition of human HDAC6 at 1 uM by HDAC-Glo assay.

T3 sequence (Q9UKV0 whole entry): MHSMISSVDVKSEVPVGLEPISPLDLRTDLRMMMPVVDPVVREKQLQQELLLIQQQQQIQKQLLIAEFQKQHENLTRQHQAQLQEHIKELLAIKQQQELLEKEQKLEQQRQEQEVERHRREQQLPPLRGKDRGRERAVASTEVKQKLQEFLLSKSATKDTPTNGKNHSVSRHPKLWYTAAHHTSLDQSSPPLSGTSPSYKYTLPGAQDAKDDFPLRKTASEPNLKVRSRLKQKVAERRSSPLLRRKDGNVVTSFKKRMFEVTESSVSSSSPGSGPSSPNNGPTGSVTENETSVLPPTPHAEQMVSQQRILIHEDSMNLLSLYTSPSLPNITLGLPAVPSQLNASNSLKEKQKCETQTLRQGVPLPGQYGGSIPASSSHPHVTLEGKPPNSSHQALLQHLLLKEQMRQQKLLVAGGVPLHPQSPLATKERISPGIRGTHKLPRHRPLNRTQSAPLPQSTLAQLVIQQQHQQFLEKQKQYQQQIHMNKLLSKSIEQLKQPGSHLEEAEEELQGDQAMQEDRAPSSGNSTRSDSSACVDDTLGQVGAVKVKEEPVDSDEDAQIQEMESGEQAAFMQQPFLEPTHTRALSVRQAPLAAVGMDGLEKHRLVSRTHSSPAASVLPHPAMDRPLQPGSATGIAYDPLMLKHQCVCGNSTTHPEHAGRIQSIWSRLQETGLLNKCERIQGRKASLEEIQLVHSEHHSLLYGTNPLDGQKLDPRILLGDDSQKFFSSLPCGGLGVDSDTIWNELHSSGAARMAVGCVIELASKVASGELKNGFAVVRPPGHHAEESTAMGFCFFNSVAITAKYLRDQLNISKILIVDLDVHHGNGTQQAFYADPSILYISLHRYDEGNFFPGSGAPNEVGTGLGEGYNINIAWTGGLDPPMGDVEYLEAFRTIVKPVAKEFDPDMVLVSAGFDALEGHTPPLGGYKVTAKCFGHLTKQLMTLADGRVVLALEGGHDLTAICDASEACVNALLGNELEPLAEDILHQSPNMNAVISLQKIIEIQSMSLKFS
T1 sequence (Q13547 whole entry): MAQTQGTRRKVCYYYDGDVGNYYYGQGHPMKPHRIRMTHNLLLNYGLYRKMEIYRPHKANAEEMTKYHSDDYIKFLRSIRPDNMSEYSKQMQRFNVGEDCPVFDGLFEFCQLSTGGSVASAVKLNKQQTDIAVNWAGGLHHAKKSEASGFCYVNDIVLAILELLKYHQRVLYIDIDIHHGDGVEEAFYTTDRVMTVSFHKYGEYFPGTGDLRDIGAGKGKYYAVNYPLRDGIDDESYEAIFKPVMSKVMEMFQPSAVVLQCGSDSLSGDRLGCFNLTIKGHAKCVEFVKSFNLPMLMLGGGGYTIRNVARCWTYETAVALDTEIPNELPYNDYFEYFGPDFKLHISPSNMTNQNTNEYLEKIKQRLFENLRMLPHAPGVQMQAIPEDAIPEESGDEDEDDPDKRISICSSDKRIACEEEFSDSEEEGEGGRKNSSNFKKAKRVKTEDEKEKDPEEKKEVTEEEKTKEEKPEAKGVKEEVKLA

Regarding `O=C(CCCCCCS)Nc1nc(-c2cccc(Cl)c2)cs1`, the inhibition result at Histone deacetylase 1 [1] is “Active”.

Turning to `CN(C(=O)CCCCCCS)c1nc(-c2ccccc2)cs1`, the inhibition entry on Histone deacetylase 1 [1] is “inactive”.

Turning to `Cc1cccc(-c2csc(NC(=O)CCCCCCS)n2)c1`, the inhibition entry on Histone deacetylase 1 [1] was “Active”.

Turning to `Cc1ccc(-c2csc(NC(=O)CCCCCCS)n2)cc1F`, the inhibition result on Histone deacetylase 1 [1] and on Histone deacetylase 9 [3] was “Active” throughout. Moreover, the IC50 in assay [2] amounted to 6100 nM; against Histone deacetylase 1 [4], 50 nM; against Histone deacetylase 9 [5] it was 62 nM.

For `CCCCc1ccc(-c2csc(NC(=O)CCCCCCS)n2)cc1`, the inhibition result at Histone deacetylase 1 [1] is “Active”.

With `O=C(CCCCCCS)Nc1nc(-c2ccc(OC(F)(F)F)cc2)cs1`, at Histone deacetylase 1 [1], the inhibition result was “Active”.

For the compound `CC(C)(C)c1ccc(-c2csc(NC(=O)CCCCCCS)n2)cc1`, the inhibition entry at Histone deacetylase 1 [1] was “Active”.

As to `O=C(CCCCCCS)Nc1nc(-c2cccc(F)c2)cs1`, the inhibition result at Histone deacetylase 1 [1] and at Histone deacetylase 9 [3] was “Active” each time. In addition, the 50% inhibitory concentration (IC50) in assay [2] is 150 nM; against Histone deacetylase 1 [4], 49 nM; against Histone deacetylase 9 [5], 78 nM. In addition, in assay [6], the inhibition was found to be 70%.

In the case of `COc1cc(OC)cc(-c2csc(NC(=O)CCCCCCS)n2)c1`, the inhibition entry at Histone deacetylase 1 [1] is “Active”.

`Cc1cc(C)cc(-c2csc(NC(=O)CCCCCCS)n2)c1`: the inhibition entry on Histone deacetylase 1 [1] is “Active”.

As to `COc1ccc(-c2csc(NC(=O)CCCCCCS)n2)cc1`, the inhibition result at Histone deacetylase 1 [1] is “Active”.

Turning to `O=C(CCCCCCS)Nc1nc(-c2ccc(F)cc2)cs1`, the inhibition result on Histone deacetylase 1 [1] and at Histone deacetylase 9 [3] was “Active” in each case. The IC50 in assay [2] amounted to 550 nM; against Histone deacetylase 1 [4] it was 36 nM; at Histone deacetylase 9 [5] it was 57 nM.

Regarding `COc1cccc(-c2csc(NC(=O)CCCCCCS)n2)c1`, on Histone deacetylase 1 [1], the inhibition result is “Active”. This compound also returned an inhibition in assay [6] of 70%.

Regarding `O=C(CCCCCCS)Nc1nc(-c2ccccc2)cs1`, the IC50 in assay [2] came out at 230 nM; against Histone deacetylase 1 [4] it was 96 nM; at Histone deacetylase 9 [5], 82 nM.

On to `COc1c(C)cc(-c2csc(NC(=O)CCCCCCS)n2)cc1C`, for which the inhibition entry at Histone deacetylase 1 [1] was “Active”.

For the compound `Cc1ccc(-c2csc(NC(=O)CCCCCCS)n2)cc1`, the inhibition result on Histone deacetylase 1 [1] and on Histone deacetylase 9 [3] was “Active” each time. For the same compound, the IC50 at Histone deacetylase 1 [4] amounted to 57 nM; against Histone deacetylase 9 [5], 42 nM.

Turning to `COc1ccc(-c2csc(NC(=O)CCCCCCS)n2)cc1C`, at Histone deacetylase 1 [1], the inhibition result is “Active”.
